Data set [1] addresses NDM-1* (BFA-labeled M67C NDM-1) (Klebsiella pneumoniae, UniProt C7C422, M67C). The data set is classed as biochemical. The conditions noted are these: labeled NDM-1*; for Km: substrate affinity. The protocol:
(§1) buffer was prepared freshly prior to the reaction.
Kinetic and inhibition analyses were performed as described1. K measurements were performed
(§2) nM NDM-1* for nitrocefin measurements. […]

Data set [2] addresses T1, NDM-1 (Klebsiella pneumoniae, UniProt C7C422). The conditions noted are these: unlabeled NDM-1; cited from earlier work.
Data set [3] deals with di-ZnII-NDM-1* (BFA-labeled M67C NDM-1) (Klebsiella pneumoniae, UniProt C7C422, M67C). Briefly: 19F NMR ligand titration / binding assay. The protocol: To calculate the molar fraction of protein–ligand complex, Equation (1) was used: [drawing 1] (1) where [P0] is the total protein concentration and [L0] is the total ligand concentration titrated into solution. […]
di-ZnII-NDM-1* (BFA-labeled M67C NDM-1), sequence (C7C422 37-270 M67C): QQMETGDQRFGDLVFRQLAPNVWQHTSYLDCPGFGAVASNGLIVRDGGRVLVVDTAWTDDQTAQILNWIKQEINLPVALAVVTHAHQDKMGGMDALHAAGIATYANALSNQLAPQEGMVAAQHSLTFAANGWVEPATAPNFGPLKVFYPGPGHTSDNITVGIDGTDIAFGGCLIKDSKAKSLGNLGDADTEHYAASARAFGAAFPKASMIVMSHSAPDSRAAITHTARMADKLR
as §1
Kinetic and inhibition analyses were performed as described1. K measurements were performed […]
as §2
with rf field of 3.125 kHz.
768 scans and a recovery delay of 1s. Data were processed with 3 Hz Lorentzian line broadening […]
Trifluoroacetic acid (TFA, 50 µM) […]
was used as an internal standard. All inhibitor incubations were compared to appropriate NDM-1* […]
A DMSO titration curve was used for reference
Metal binding experiments

The target of data set [4] is T1, NDM-1.
The test system of data set [5] is C[C@@H](O)[C@H]1C(=O)N2C(C(=O)O)=C(S[C@@H]3CN[C@H](C(=O)N(C)C)C3)[C@H](C)[C@H]12. Briefly: purified protein, by the assay type. Particulars: other: unlabeled NDM-1; substrate affinity; 25.0 °C.
Experimental: We then investigated the kinetic properties of NDM-1* compared to unlabeled NDM-1.
using 0.5 nM NDM-1 and 1 nM NDM-1* for meropenem measurements and 0.25 nM NDM-1 and 2

Like-named read-outs stand apart in the source and are kept apart here.

The values that follow come from publication PMC4499255, “Monitoring Conformational Changes in the NDM-1 Metallo-β-lactamase by ^19F NMR Spectroscopy” (Angewandte Chemie (International Ed. in English), 2014).

NDM-1* (BFA-labeled M67C NDM-1), sequence (C7C422 37-270 M67C): as above
T1 sequence (C7C422 37-270 limits assumed): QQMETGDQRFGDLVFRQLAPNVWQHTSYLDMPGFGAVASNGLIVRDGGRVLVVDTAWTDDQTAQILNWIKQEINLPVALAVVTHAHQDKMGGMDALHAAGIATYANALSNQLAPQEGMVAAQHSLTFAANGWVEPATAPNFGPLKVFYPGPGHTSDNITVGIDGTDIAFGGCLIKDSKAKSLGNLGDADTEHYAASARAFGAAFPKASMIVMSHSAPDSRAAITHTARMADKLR

With `C[C@@H](O)[C@H]1C(=O)N2C(C(=O)O)=C(S[C@@H]3CN[C@H](C(=O)N(C)C)C3)[C@H](C)[C@H]12` [Meropenem], in data set [1], the kcat stood at 67.8 ± 4.3 s⁻¹ and the Michaelis constant (Km) was 54.8 ± 9.4 µM.
Regarding `O=C(Cc1cccs1)N[C@@H]1C(=O)N2C(C(=O)O)=C(/C=C/c3ccc([N+](=O)[O-])cc3[N+](=O)[O-])CS[C@H]12` [Nitrocefin], in data set [1], the kcat came to 22.9 ± 0.6 s⁻¹ and the Km worked out at 6.2 ± 0.7 µM. Besides, the kcat in data set [2] is 25.3±1.6^[a] s^−1.
As for `C[C@H]1[C@H](NC(=O)/C(=N\OC(C)(C)C(=O)O)c2csc(N)n2)C(=O)N1S(=O)(=O)O` [aztreonam], in data set [3] (ligand 2.5 mM), the “19F chemical shift change upon addition of ligand (binding)” value is recorded as “no ^19F chemical shift change was observed”. The “reported inhibition of NDM-1” value in data set [4] (ref 9b; cited from earlier work) is listed as “not to inhibit NDM-1”.
In turn, `O=C(N[C@@H](Cc1c[nH]c2ccccc12)C(=O)O)c1nc(Cl)c2ccccc2c1O` [compound 3, (S)-2-(1-chloro-4-hydroxyisoquinoline-3-carboxamido)-3-(1H-indol-3-yl)propanoic acid] yielded a Kd in data set [3] of 131 µM. Further, the IC50 in data set [4] (read-out: reported IC50; NDM-1; cited from earlier work) is 61 µM.
Regarding `O=C(N[C@H](Cc1c[nH]c2ccccc12)C(=O)O)c1nc(Cl)c2ccccc2c1O` [compound 4, (R)-2-(1-chloro-4-hydroxyisoquinoline-3-carboxamido)-3-(1H-indol-3-yl)propanoic acid], in data set [4] (NDM-1; read-out: reported IC50; cited from earlier work), the concentration for half-maximal inhibition (IC50) was 47 µM.
For NDM-1 (Klebsiella pneumoniae), in data set [5], the Km came out at 76.6 ± 4.4 µM and the kcat stood at 235 ± 5.6 s⁻¹.
